How the values were obtained:
[1] = system: B. cereus 204; assay: Chicken soup trial at 8° C.; type: cell-based, Bacillus cereus; settings: chicken soup at 8° C.
Excerpt: (§1) A local supermarket brand of cream of chicken soup was used as a model food system. 600 g packs were purchased from the local supermarket. This was a ‘fresh home-made type’ of soup that was stored in the chill cabinet, with a short shelf life. It was chosen because it is a rich, nutritious food system containing a range of food components including meat, dairy and vegetable.
(§2) Ingredients were labelled as: chicken stock (water, duck fat, chicken, salt, flavourings, yeast extracts, pork gelatine, glucose syrup, vegetable concentrate, milk protein, sugar, malto-dextrin, vegetable oil, citric acid, lactose, chicken fat), ilk, chicken (9%), cream (8%), onion, potato, vegetable oil, modified maize starch, wheat flour, lemon juice, salt, white pepper. pH 5.912. Protein: 3.3%; carbohydrate: 4.7%; fat: 7.2%; fibre: 0.2%; sodium: 0.1%
(§3) For the test the soup was mixed 2:1 in water (to facilitate sampling and mixing) and sterilised by autoclaving at 121° C. for 15 minutes. For each experiment the pH of the soup was recorded; this was between pH 5.79-5.88.
For TCS010412/8 (which was incubated at 8° C.), APP batch number APP20010213 (concentration 169 mg APP/ml) was used to prepare tests containing 0, 2000 or 4000 ppm APP. 5 g of filter-sterilised APP stock solution was added to 94 g of soup, mixed and then 1 ml of a diluted inoculum suspension (cells or spores as appropriate) was added to give a test inoculum level of 10^3 cfu/g. The soup mixture was shaken vigorously to ensure homogeneous distribution of the APP and micro-organisms. The tests were tested by viable count and then incubated at 8° C. and tested on a twice-weekly basis.
For TCS010521/8 (incubated at 8° C.), samples were prepared in 27.8 g quantities. 1.5 g of an APP stock solution was added, and the tests inoculated with 0.3 ml of a suitably diluted cell or spore suspension to give a final inoculum of ca. 10^3 cfu/g. APP was tested at 0, 500 and 1000 ppm, and batch number APP20010213 (at 169 mg/ml) was used. The tests were sampled by viable count and then incubated at 8° C. and tested on a twice-weekly basis.

[2] = system: L. monocytogenes 358; assay: Bioscreen growth inhibition test; type: cell-based, Listeria monocytogenes; settings: BS010510, 24 h at 30° C., APP20010213
Procedure: (§4) For broth cultures and Bioscreen testing most bacteria were grown in Brain Heart Infusion (BHI, Oxoid, pH 7.4). Lactobacillus sake A10 was grown in de Man, Rogosa, Sharpe medium ([…], Oxoid). Yeasts were grown in Sabouraud Liquid medium (SLM, Oxoid). Most bacteria were cultured at 30° C. Lactic acid bacteria were grown on solid medium in enriched CO2 atmosphere. Clostridium species were grown in Reinforced Clostridial Medium (RCM) at 37° C. anaerobically. Brochothrix thermosphacta fungi and yeasts were grown at 25° C. Fungi were cultured on Malt Extract Agar (MEA, Oxoid).
(§5) An automated Microbiology Reader Bioscreen C was used to measure growth curves of the strains in the presence and absence of APP. The Bioscreen C measures the development of turbidity (i.e. growth) kinetically by vertical photometry in 200 wells of a honeycomb microtitre plate, simultaneously. The system consists of a Bioscreen C analyser, which is an incubator and measurement unit, integrated with a PC, software (BioLink v 5.30), printer and a ‘Honeycomb 2’ cuvette multiwell plate. Growth curve data can be analysed within the BioLink software or exported to programs such as Excel.
(§6) Broth culture media were dispensed in 270 μl volumes into the wells as directed. Serial dilutions of a filter-sterilised APP stock solution were then dispensed into the same wells, as appropriate. The wells were inoculated with 30 μl of an appropriately diluted overnight broth culture or spore suspension, to give a final inoculum level of […]. The tests were incubated in the Bioscreen C for either 24 h at 30° C., or 72 h at 25° C. (depending on the micro-organism under investigation) with readings taken every 20 minutes after the trays were shaken. After the incubation period was complete the data were exported to Excel for analysis.

[3] = system: L. monocyt. F6861; assay: Bioscreen growth inhibition test; type: cell-based, Listeria monocytogenes; settings: BS010510, 24 h at 30° C., APP20010213
Procedure: as §4, §5, §6

[4] = system: L. monocytogenes 272; assay: Bioscreen growth inhibition test; type: cell-based, Listeria monocytogenes; settings: BS010411, 24 h at 30° C.
Procedure: as §4, §5, §6

[5] = system: L. monocytogenes S23; assay: Bioscreen growth inhibition test; type: cell-based, Listeria monocytogenes; settings: BS010411, 24 h at 30° C.
Procedure: as §4, §5, §6

[6] = system: L. monocyt. Scott A; assay: Bioscreen growth inhibition test; type: cell-based, Listeria monocytogenes; settings: BS010510, 24 h at 30° C., APP20010213
Procedure: as §4, §5, §6

[7] = system: S. cerevisiae ATCC9763; assay: Bioscreen growth inhibition test; type: cell-based, Saccharomyces cerevisiae; settings: APP 213, BS010420, 72 h/25° C.
Procedure: as §4, §5, §6

[8] = system: Br. thermosphacta; assay: Inoculated test in raw meat; type: cell-based, Brochothrix thermosphacta; settings: Raw inoculated meat at 8° C. pH 5.3
Procedure: Fresh beef steak was purchased from the local butcher, and minced on clean machinery. The raw meat (ca. pH 6.2) was divided into 8×90 samples and inoculated-with 10^3 cfu/ml of test organisms. The meat was mixed thoroughly using a stomacher. 10 g of SDW or 2% APP (Batch number APP20010215) was added, and the meat was again thoroughly mixed. An initial viable count was taken, the meat was incubated at 8° C., and sampled on the following days using non-selective agar (MPCA) and selective agar: XLD for Salmonella; Oxford selective agar (Listeria monocytogenes); and STAA agar (Brochothrix thermosphacta). The pH of the raw meat was pH 5.3.

[9] = system: Salmonella Typhimurium S29; assay: Chicken soup trial at 20° C.; type: cell-based; settings: chicken soup at 20° C., TCSM010430, APP20010213
Excerpt: as §1, §2, §3
For TCS010430/20 (incubated at 20° C.) samples were prepared in 18.8 g quantities, to which 1 g of a suitable filter-sterilised APP stock solution was added and an appropriately diluted 0.2 ml inoculum. Great care was again taken to ensure homogeneous distribution of the APP and micro-organisms. This test was sampled by viable count test on a daily basis.

O=C1CC(CO)OC=C1O (centres unmarked) [APP, Ascopyrone P]
Counts / spore kill ([1]; 500 and 1000 ppm, TCSM010521, APP215): Counts remain at approx initial level, i.e. no spore kill. | Total inhibition for ([1]; 500 ppm, TCSM010521, APP215): Total inhibition by 500 and 1000 ppm for >27 days. | Total inhibition for ([1]; 1000 ppm, TCSM010521, APP215): Total inhibition by 500 and 1000 ppm for >27 days. | Counts / spore kill ([1]; 2000 and 4000 ppm, TCS010412, APP20010213): Counts remain at initial level, i.e. no spore kill. | Total inhibition for ([1]; 2000 ppm, TCS010412, APP20010213): Total inhibition by 2000 and 4000 ppm for >60 days. | Total inhibition for ([1]; 4000 ppm, TCS010412, APP20010213): Total inhibition by 2000 and 4000 ppm for >60 days. | APP level causing total inhibition [2]: 3000 ppm | APP level causing significant inhibition [3]: 2000 ppm | APP level causing total inhibition [3]: 3000 ppm | APP level causing significant inhibition ([4]; APP20010213): 2000 ppm | APP level causing total inhibition ([4]; APP20010213): 4000 ppm | APP level causing significant inhibition ([4]; APP20010215): 2000 ppm | APP level causing total inhibition ([4]; APP20010215): >4000 ppm | APP level causing significant inhibition ([5]; APP20010213): 2000 ppm | APP level causing total inhibition ([5]; APP20010213): 4000 ppm | APP level causing significant inhibition ([5]; APP20010215): 1000 ppm | APP level causing total inhibition ([5]; APP20010215): 4000 ppm | APP level causing significant inhibition [6]: 2000 ppm | APP level causing total inhibition [6]: 3000 ppm | APP level causing significant inhibition [7]: Enhanced growth | APP level causing total inhibition [7]: >4000 | No inhibition (effect on growth of target organism by 2000 ppm APP) [8]: Br. thermosphacta | Effect on growth ([9]; 1000 ppm): No effect with 1000 ppm | Final count ([9]; 2000 ppm (cf 10^9 without)): 10^6 | Counts drop after ([9]; 2000 ppm): 8 days | Counts undetectable by ([9]; 2000 ppm): counts drop, undetectable by 18 d.

— patent publication US20030203963A1, “Antimicrobial agent” (priority 2001, published 2003)
